Results on two compounds are retold here after patent US20070149580A1, “USE OF PEROXISOME PROLIFERATOR ACTIVATED RECEPTOR DELTA AGONISTS FOR THE TREATMENT OF MS AND OTHER DEMYELINATING DISEASES” (AVENTIS PHARMACEUTICALS INC., priority 2004, published 2007).

The subject of assay [1] is cultured rat oligodendrocytes. The assay is described as follows: Quantitative PCR of MBP mRNA in cultured rat oligodendrocytes. To be noted: FIGS. 2 and 3. The format is cell-based. The source says: (§1) • 1. Primary rat oligodendrocyte progenitor cells are obtained from the neocortex of newborn (postnatal days 2-3) rats or mice and are enriched, after removal of microglia, by mechanical separation from the astrocytic monolayer using a modification of the technique originally described by McCarthy and de Vellis (1980). • 2. Remove the meninges from neonatal rat brain and mechanically dissociate tissue. Plate cells on T75 flasks and feed cells with DMEM/F12+10% FBS. • 3. Collect oligodendrocytes growing on the astrocyte bed layer by shaking-off method fourteen days after the original prep date. Centrifuge the suspension and resuspend the cell pellet in serum free media (SFM; DMEM combined with 25 μg/ml transferring, 30 nM triiodothyronine, 20 nM hydrocortisone, 20 nM progesterone, 10 nM biotin, 1× trace elements, 30 nM selenium, 1 μg/ml putrescine, 0.1% BSA, 5 U/ml PenStrep, 10 μg/ml insulin) supplemented with the following growth factors: Platelet derived growth factor-AA (PDGF) and fibroblast growth factor-2 (FGF). • 4. Plate the cells on PDL-coated dishes and incubate at 37° C. with 6-7% CO2. • 5. Media components are replaced every 48 hr to keep the cells in a progenitor state. Progenitor Cell Passaging to Increase Cell Numbers for Screening Assays: • 1. […]
(§2) • 1. […] PPAR delta pathway member transcript expression is quantitated using Sybr Green PCR Master Mix. • 4. […]

Assay [2] relates to PPAR delta pathway in cultured rat oligodendrocytes. Kind of assay: Quantitative PCR of PPAR delta pathway transcriptional markers (ADRP mRNA) in cultured rat oligodendrocytes. The format is cell-based. Conditions: FIG. 4B.
Text: as §1, §2

A further assay has as its target T1, human PPAR delta (Homo sapiens, UniProt Q03181).
T1 sequence (Q03181 139-441): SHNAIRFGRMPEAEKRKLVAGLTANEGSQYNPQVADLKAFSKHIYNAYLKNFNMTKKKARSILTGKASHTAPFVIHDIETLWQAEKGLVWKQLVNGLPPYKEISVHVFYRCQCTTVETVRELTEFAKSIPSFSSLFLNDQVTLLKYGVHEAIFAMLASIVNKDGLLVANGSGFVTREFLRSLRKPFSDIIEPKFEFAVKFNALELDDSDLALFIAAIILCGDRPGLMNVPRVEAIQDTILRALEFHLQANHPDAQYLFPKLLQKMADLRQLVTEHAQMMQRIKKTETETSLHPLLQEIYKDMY
Kind of assay: cell-based.

The target of another assay is T2, human PPAR alpha (Homo sapiens, UniProt Q07869).
T2 construct: human PPAR alpha receptor (amino acids S167-Y468); expressed in transfected cells; host or cells: HEK cells, stably transfected (pcDNA3, CMV promoter)
T2 sequence (Q07869 167-468): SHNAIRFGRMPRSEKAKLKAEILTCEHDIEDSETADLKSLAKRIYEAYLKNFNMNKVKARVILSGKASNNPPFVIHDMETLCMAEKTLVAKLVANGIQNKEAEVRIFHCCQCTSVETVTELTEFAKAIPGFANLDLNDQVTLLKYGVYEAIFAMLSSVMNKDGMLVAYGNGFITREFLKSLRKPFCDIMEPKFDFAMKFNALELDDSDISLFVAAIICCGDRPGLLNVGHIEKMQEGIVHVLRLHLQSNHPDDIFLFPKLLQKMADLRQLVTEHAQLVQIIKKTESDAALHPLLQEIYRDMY
The assay is described as follows: Cellular PPAR alpha GAL4/luciferase reporter assay (HEK reporter cell line). The format is cell-based. (Reporter assays use an easily measured gene product as a stand-in for the process of interest.)

Another assay concerns the target T3, Mouse PPAR delta (Mus musculus, UniProt P35396).
T3 construct: expressed in transfected cells
T3 sequence (P35396 1-440): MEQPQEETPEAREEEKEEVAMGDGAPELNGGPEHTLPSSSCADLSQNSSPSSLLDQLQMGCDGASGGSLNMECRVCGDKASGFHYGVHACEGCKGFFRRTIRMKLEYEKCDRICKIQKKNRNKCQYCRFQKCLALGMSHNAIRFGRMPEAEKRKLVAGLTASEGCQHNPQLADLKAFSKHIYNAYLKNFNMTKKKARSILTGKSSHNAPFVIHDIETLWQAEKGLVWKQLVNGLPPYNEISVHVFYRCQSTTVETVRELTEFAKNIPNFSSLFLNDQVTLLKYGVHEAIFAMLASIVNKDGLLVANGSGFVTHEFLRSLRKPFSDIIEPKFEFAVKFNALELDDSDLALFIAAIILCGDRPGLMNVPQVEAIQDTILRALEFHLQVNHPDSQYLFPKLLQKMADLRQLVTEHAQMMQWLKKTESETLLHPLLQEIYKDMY
Kind of assay: Mouse PPAR delta GAL4/luciferase reporter assay. The format is cell-based. The procedure: The optimum nuclear receptor selectivity profile is determined by the GAL4/luciferase reporter assays.

Procedure for human PPAR alpha: The potency of substances which bind to human PPAR alpha and activate it in an agonistic manner is analyzed using a stably transfected HEK cell line (HEK=human embryo kidney) which is referred to here as PPAR alpha reporter cell line. It contains two genetic elements, a luciferase reporter element (pdeltaM-GAL4-Luc-Zeo) and a PPAR alpha fusion protein (GR-GAL4-humanPPAR alpha-LBD) which mediates expression of the luciferase reporter element depending on a PPAR alpha ligand. The stably and constitutively expressed fusion protein GR-GAL4-humanPPAR alpha-LBD binds in the cell nucleus of the PPAR alpha reporter cell line via the GAL4 protein portion to the GAL4 DNA binding motifs 5′-upstream of the luciferase reporter element which is stably integrated in the genome of the cell line. […] PPAR alpha ligands bind and activate the PPAR alpha fusion protein and thereby stimulate the expression of the luciferase reporter gene.
The finished PPAR alpha reporter cell line which contains a luciferase reporter element and constitutively expresses the PPAR alpha fusion protein (GR-GAL4-human PPAR alpha-LBD) was isolated by selection with zeocin (0.5 mg/ml) and G418 (0.5 mg/ml).

Regarding `Cc1cc(SCc2sc(-c3ccc(C(F)(F)F)cc3)nc2C)ccc1OCC(=O)O` [Compound 1], the “MBP mRNA” value in assay [1] is recorded as “enhancement”. For the same compound, the “ADRP mRNA” value in assay [2] is “upregulated”.

The EC50 is the midpoint of the concentration-response curve. Low values mean higher potency in that assay, high ones lower potency in that assay. With `CCCc1c(OCCCOc2ccc(OCC(=O)O)cc2)ccc(C(C)=O)c1O` [Compound 2], in assay [1], the “MBP mRNA” value is recorded as “enhancement”. For the same compound, the EC50 on human PPAR delta was 39 nM; on human PPAR alpha, 1100 nM; on Mouse PPAR delta, 1000 nM.
